{"source": "patent US20260183393A1", "about": "“IMMUNOSUPPRESSANT-RESISTANT MODIFIED ALLOGENEIC MODIFIED IMMUNE CELLS AND METHODS FOR USE THEREOF” (Beam Therapeutics Inc., priority 2023, published 2026)", "key": {"JeKo-1.Luc cells": {"system": "JeKo-1.Luc cells", "assay": "Anti-tumor efficacy model, JeKo-1.Luc", "type": "in vivo, NSG mice", "details": "RPM 1 mg kg^−1 daily for 2 weeks", "method": "Immunocompromised NOD scid gamma (NSG) mice were implanted with 5E5 Jeko-1 tumor cells and the tumor cells were allowed to engraft for 6 days. After the six days of engraftment, 1E6 unedited or edited 19CAR-T cells were infused into tumor bearing mice (N=8 mice evaluated for each experimental condition) and administered daily for 2 weeks (dotted vertical lines) either a vehicle (5% PEG400+5% Tween80) or tacrolimus (10 mg/kg in 5% PEG400+5% Tween80). Tumor burden was assessed twice per week by measuring bioluminescence using an IVIS® spectral imaging instrument. In FIGS. 13A and 13B, each data point represents a measurement taken for an individual mouse.\nFor the study described in FIGS. 18A to 18G, NSG mice were intravenously injected with 5×10^5 JeKo-1.Luc cells at day 0. On day 7, mice initiated daily intraperitoneal injections of VEH, RPM (1 mg kg^−1), or TAC (10 mg kg^−1) for 2 weeks. […] For all studies, tumor burden was measured every 3-4 days post-implant by bioluminescence imaging (IVIS Spectrum, Spectral Instruments Imaging) 30 minutes after intraperitoneally injecting mice with 150 mg kg^−1 XenoLight D-Luciferin (PerkinElmer). The acquisition time was automatically determined by the instrument for each exposure, and quantification of flux from imaging datasets was performed with the Living Image Studio software (Perkin Elmer). […]"}, "CD19^+ B cells": {"system": "CD19^+ B cells", "assay": "B cell aplasia and 19CAR-T cell persistence in HIS mice", "type": "in vivo, huCD34-NCG mice", "details": "TAC 10 mg kg^−1 daily; 10 days post-T cell infusion", "source_text": "FIGS. 19B and 19C provide a bar graph of cell concentration (FIG. 19B) and flow cytometry contour plots (FIG. 19C) for peripheral CD19^+ B cells 6 days post-T cell infusion from mice in Groups 1-4. FIGS. 19D and 19E provide bar graphs showing total CD19^+ B cells from individual mouse splenic (FIG. 19D) and bone marrow (FIG. 19E) tissue 10 days post-T cell infusion in Groups 1-4. FIG. 19F provides a bar graph showing geometric median fluorescent intensity (MFI) of CD19 expression on residual peripheral CD22^+ B cells 6 days post-T cell infusion from mice in Groups 1-4. FIG. 19G provides a bar graph showing concentration of peripheral CD22^+CD19^dim B cells 6 days post-T cell infusion from mice in Groups 1-4. […] Statistical significance was calculated by Wilcoxon rank sum test (FIGS. 19B, 19D, and 19E) and Kruskall-Wallace test with Dunn's test for multiple comparisons (FIGS. 19F, 19G, 19I, and 19J).\nFor the studies described in FIGS. 19A to 19J, huCD34-NCG mice were used in Cohort #6 (n=16), Cohort #7 (n=12), Cohort #8 (n=24), and Cohort #9 (n=12) and were evenly distributed into 4 groups via matched distribution based on degree of human T cell engraftment using StudyLog. […] Endogenous B cell aplasia and persistence of 19CAR-T cells was monitored at 7- and 11-days post-drug treatment via blood draw from the submandibular vein and tissue collection at necropsy."}}, "data": [{"smiles": "CO[C@H]1C[C@@H]2CC[C@@H](C)[C@@](O)(O2)C(=O)C(=O)N2CCCC[C@H]2C(=O)O[C@H]([C@H](C)C[C@@H]2CC[C@@H](O)[C@H](OC)C2)CC(=O)[C@H](C)/C=C(\\C)[C@@H](O)[C@@H](OC)C(=O)[C@H](C)C[C@H](C)/C=C/C=C/C=C/1C", "note": "[rapamycin, Rapamycin]", "values": [{"measurement": "JeKo-1 growth in control mice", "setting": "JeKo-1.Luc cells", "value": "mitigated JeKo-1 growth in control mice"}]}, {"smiles": "C=CC[C@@H]1/C=C(\\C)C[C@H](C)C[C@H](OC)[C@H]2O[C@@](O)(C(=O)C(=O)N3CCCC[C@H]3C(=O)O[C@H](/C(C)=C/[C@@H]3CC[C@@H](O)[C@H](OC)C3)[C@H](C)[C@@H](O)CC1=O)[C@H](C)C[C@@H]2OC", "note": "[tacrolimus, Tacrolimus]", "values": [{"measurement": "allorejection of HLA-I^+ 19CAR-T cells in peripheral blood and spleen", "setting": "CD19^+ B cells", "value": "protected HLA-I^+ 19CAR-T cells"}]}]}
